Data as given in PMC12621043, “Un-LOK-ing a New Approach for Conformational Selective Targeting of STK10 (LOK)” (ACS Medicinal Chemistry Letters, 2025).

What was measured:
Assay in all cases: DSF Tm panel
Assay type in all cases: binding
Details in all cases: 10 μM compound
SRPK1A = target: T1, SRPK1A (Homo sapiens, UniProt Q96SB4)
T1 construct: purchased in-house DSF kinase panel (SGC-style construct names; the trailing letter is the construct ID)

CAMKK2B = target: T2, CAMKK2B (Homo sapiens, UniProt Q96RR4)
T2 construct: purchased in-house DSF kinase panel (SGC-style construct names; the trailing letter is the construct ID)

CDC42BPAA = system: CDC42BPAA
CAMK2DA = target: T3, CAMK2DA (Homo sapiens, UniProt Q13557)
T3 construct: purchased in-house DSF kinase panel (SGC-style construct names; the trailing letter is the construct ID)

WNK1A = target: T4, WNK1A (Homo sapiens, UniProt Q9H4A3)
T4 construct: purchased in-house DSF kinase panel (SGC-style construct names; the trailing letter is the construct ID)

FLT1A = target: T5, FLT1A (Homo sapiens, UniProt P17948)
T5 construct: purchased in-house DSF kinase panel (SGC-style construct names; the trailing letter is the construct ID)
T5 sequence (P17948 801-1158): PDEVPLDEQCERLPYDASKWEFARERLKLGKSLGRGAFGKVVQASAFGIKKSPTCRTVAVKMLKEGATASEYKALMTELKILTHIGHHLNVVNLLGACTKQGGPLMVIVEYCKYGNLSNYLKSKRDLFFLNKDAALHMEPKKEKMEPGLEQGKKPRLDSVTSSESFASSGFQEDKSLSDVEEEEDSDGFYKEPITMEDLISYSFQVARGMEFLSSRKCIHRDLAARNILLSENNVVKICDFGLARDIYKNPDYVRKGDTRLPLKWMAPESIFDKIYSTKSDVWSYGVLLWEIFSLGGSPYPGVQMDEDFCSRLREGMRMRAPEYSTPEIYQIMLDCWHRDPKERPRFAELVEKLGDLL

RIOK1A = target: T6, RIOK1A (Homo sapiens, UniProt Q9BRS2)
T6 construct: purchased in-house DSF kinase panel (SGC-style construct names; the trailing letter is the construct ID)
T6 sequence (Q9BRS2 143-494): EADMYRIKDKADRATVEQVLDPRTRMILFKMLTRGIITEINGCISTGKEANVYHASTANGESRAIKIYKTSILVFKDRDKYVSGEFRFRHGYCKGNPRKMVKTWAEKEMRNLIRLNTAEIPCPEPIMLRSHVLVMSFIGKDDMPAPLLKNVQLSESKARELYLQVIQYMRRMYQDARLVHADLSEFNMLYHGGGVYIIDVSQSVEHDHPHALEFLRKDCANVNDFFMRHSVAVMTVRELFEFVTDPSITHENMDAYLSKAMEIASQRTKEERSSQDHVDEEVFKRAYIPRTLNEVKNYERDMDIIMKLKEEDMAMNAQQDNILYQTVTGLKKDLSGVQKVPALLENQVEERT

CAMK1GA = target: T7, CAMK1GA (Homo sapiens, UniProt Q96NX5)
T7 construct: purchased in-house DSF kinase panel (SGC-style construct names; the trailing letter is the construct ID)

DMPK1A = target: T8, DMPK1A (Homo sapiens, UniProt Q09013)
T8 construct: purchased in-house DSF kinase panel (SGC-style construct names; the trailing letter is the construct ID)
T8 sequence (Q09013 1-629): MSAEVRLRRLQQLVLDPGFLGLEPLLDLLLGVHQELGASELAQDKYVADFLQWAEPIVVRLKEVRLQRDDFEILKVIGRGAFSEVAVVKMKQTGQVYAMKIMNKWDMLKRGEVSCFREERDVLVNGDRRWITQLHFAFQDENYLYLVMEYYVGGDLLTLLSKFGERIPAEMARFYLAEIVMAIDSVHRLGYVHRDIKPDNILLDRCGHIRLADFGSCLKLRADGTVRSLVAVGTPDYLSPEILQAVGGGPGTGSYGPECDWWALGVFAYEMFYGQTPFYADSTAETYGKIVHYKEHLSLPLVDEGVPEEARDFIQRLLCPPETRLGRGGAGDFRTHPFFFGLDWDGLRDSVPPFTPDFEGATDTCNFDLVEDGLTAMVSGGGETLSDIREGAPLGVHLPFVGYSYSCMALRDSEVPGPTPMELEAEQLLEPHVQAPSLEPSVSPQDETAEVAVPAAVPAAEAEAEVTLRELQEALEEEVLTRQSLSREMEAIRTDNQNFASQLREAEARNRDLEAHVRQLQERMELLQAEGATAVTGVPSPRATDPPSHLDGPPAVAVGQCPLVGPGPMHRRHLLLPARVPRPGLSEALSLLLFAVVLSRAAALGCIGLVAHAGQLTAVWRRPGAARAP

MELKA = target: T9, MELKA (Homo sapiens, UniProt Q14680)
T9 construct: purchased in-house DSF kinase panel (SGC-style construct names; the trailing letter is the construct ID)
T9 sequence (Q14680 1-340): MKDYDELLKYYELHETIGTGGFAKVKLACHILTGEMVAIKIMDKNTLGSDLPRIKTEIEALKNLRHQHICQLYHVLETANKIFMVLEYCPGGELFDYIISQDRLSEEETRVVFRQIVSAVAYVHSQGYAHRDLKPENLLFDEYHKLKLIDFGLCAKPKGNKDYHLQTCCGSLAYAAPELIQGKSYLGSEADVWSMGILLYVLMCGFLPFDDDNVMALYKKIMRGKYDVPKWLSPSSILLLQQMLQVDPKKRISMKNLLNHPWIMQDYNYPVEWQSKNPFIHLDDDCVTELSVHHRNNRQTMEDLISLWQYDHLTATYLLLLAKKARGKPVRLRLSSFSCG

T3 sequence (Q13557 11-309): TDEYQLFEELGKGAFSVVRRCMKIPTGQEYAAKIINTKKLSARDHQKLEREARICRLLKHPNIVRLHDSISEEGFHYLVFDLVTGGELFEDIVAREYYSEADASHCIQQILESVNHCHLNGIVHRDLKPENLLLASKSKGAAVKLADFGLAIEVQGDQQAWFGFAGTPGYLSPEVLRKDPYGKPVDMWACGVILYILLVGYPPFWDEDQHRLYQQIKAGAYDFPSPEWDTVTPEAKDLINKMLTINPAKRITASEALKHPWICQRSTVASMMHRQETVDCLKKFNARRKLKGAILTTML
T4 sequence (Q9H4A3 206-483): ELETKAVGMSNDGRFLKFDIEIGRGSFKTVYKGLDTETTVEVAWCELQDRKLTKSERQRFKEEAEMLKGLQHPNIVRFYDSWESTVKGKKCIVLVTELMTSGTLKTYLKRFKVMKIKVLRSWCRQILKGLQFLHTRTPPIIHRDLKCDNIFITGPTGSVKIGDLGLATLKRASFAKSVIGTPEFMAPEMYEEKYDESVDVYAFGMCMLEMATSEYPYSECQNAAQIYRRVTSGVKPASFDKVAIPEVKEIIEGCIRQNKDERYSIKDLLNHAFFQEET
T7 sequence (Q96NX5 18-316): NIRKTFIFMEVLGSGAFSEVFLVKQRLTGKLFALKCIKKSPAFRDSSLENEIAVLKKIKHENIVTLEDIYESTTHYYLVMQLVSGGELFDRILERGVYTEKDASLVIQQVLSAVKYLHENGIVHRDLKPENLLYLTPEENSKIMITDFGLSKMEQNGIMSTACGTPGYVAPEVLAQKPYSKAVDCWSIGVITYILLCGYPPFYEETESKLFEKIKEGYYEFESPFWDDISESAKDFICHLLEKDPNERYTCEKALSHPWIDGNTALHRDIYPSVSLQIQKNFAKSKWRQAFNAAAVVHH
T2 sequence (Q96RR4 161-449): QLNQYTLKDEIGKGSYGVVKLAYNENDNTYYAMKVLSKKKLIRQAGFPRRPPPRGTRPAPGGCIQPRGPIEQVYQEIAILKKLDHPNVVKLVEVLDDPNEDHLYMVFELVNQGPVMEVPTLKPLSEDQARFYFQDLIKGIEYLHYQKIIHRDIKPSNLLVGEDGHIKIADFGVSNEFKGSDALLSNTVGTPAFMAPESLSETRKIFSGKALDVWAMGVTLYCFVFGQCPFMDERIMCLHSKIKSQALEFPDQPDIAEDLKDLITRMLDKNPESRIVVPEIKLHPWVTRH
T1 sequence (Q96SB4 80-653): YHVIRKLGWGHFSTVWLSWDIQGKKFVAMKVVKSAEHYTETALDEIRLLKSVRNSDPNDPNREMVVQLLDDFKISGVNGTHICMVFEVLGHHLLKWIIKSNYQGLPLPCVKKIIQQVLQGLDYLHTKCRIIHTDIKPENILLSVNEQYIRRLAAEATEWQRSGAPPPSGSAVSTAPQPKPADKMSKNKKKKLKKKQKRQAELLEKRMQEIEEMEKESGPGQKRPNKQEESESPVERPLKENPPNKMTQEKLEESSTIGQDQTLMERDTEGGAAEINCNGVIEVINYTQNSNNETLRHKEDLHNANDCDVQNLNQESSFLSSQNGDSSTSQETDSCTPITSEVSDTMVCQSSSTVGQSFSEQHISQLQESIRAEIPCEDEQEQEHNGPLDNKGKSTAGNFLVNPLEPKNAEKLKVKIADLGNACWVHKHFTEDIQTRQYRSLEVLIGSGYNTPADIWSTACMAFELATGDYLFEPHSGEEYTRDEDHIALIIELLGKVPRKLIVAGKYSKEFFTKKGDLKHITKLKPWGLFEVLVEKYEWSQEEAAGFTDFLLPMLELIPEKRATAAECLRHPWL

- ΔTm at 10 µM (SRPK1A): 0 °C
- ΔTm at 10 µM (CAMKK2B): 3.8 °C
- ΔTm at 10 µM (CAMK2DA): 0.2 °C
- ΔTm at 10 µM (WNK1A): 0 °C
- ΔTm at 10 µM (FLT1A): 4.7 °C
- ΔTm at 10 µM (RIOK1A): 0.1 °C
- ΔTm at 10 µM (CAMK1GA): -0.3 °C
- ΔTm at 10 µM (DMPK1A): 0.3 °C
- ΔTm at 10 µM (MELKA): 2 °C
Compound: O=C(NCc1ccccc1)Nc1ccc2cc1OCCOCCNc1ccn3ncc-2c3n1 [compound 16]
- ΔTm CDC42BPAA (CDC42BPAA): -0,2 °C
